Experimental data as given in patent US20260241012A1, “1,8-NAPHTHYRIDIN-2-ONE HETEROBIFUNCTIONAL BCL6 DEGRADERS” (Treeline Biosciences, Inc., priority 2022, published 2026).

Target: T1, N-terminal HiBiT tagged BCL6 (Homo sapiens, UniProt P41182)
T1 construct: expressed in transfected cells; host or cells: HT1080 (ATCC CCL-121), stably transduced with lentivirus pLV-UBC-N-HiBiT-BCL6-PGK-puro
Assay: HiBiT based degradation assay
Assay type: cell-based
Settings: HT1080 cells expressing N-terminal HiBiT tagged BCL6, 5 hours of incubation; for Ymin (5 hr): BCL6 degradation normalized with DMSO control; for DC50: four-parameter logistic model, read-out: EC50 (5 hr)
In short: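 Degradation measured by luminescence from the Nano-Glo HiBiT lytic reagent (15 min, room temperature), normalized to DMSO controls and fitted to a four-parameter curve.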

Row | Structure (SMILES) | Ymin (5 hr) | DC50
1 | CNC(=O)COc1cc2cc(Nc3nc(N4CCN(C[C@H]5CCN(c6ccc7c(C8CCC(=O)NC8=O)nn(C)c7c6)C5)CC4)ncc3Cl)cnc2n(C(C)C)c1=O (stereo partly drawn) [Compound 228b, 2-((6-((5-chloro-2-(4-(((3R)-1-(3-(2,6-dioxopiperidin-3-yl)-1-methyl-1H-indazol-6-yl)pyrrolidin-3-yl)methyl)piperazin-1-yl)pyrimidin-4-yl)amino)-1-isopropyl-2-oxo-1,2-dihydro-1,8-naphthyridin-3-yl)oxy)-N-methylacetamide] | ++ (50% ≤ Ymin < 70%) | 10 to 100 nM
2 | CNC(=O)COc1cc2cc(Nc3nc(N4CCC5(CCC(CN6CCN(c7ccc8c(C9CCC(=O)NC9=O)nn(C)c8c7)CC6)CC5)CC4)ncc3Cl)cnc2n(C(C)C)c1=O (centres unmarked) [Compound 204, 2-((6-((5-chloro-2-(9-((4-(3-(2,6-dioxopiperidin-3-yl)-1-methyl-1H-indazol-6-yl)piperazin-1-yl)methyl)-3-azaspiro[5.5]undecan-3-yl)pyrimidin-4-yl)amino)-1-isopropyl-2-oxo-1,2-dihydro-1,8-naphthyridin-3-yl)oxy)-N-methylacetamide] | ++++ (Ymin < 30%) | 10 to 100 nM
3 | CNC(=O)COc1cc2cc(Nc3nc(N4CCN(CC5CCN(c6ccc7c(C8CCC(=O)NC8=O)nn(C)c7c6)CC5)[C@@H](C)C4)ncc3Cl)cnc2n(C(C)C)c1=O (stereo partly drawn) [Compound 106a, 2-((6-((5-chloro-2-((3S)-4-((1-(3-(2,6-dioxopiperidin-3-yl)-1-methyl-1H-indazol-6-yl)piperidin-4-yl)methyl)-3-methylpiperazin-1-yl)pyrimidin-4-yl)amino)-1-isopropyl-2-oxo-1,2-dihydro-1,8-naphthyridin-3-yl)oxy)-N-methylacetamide] | ++ (50% ≤ Ymin < 70%) | < 10 nM
4 | CNC(=O)COc1cc2cc(Nc3nc(N4CC5COCC(C4)N5CC4CCN(c5cccc6c(C7CCC(=O)NC7=O)nn(C)c56)CC4)ncc3Cl)cnc2n(C)c1=O (centres unmarked) [Compound 117, 2-((6-((5-chloro-2-(9-((1-(3-(2,6-dioxopiperidin-3-yl)-1-methyl-1H-indazol-7-yl)piperidin-4-yl)methyl)-3-oxa-7,9-diazabicyclo[3.3.1]nonan-7-yl)pyrimidin-4-yl)amino)-1-methyl-2-oxo-1,2-dihydro-1,8-naphthyridin-3-yl)oxy)-N-methylacetamide] | ++++ (Ymin < 30%) | < 10 nM
5 | CNC(=O)COc1cc2cc(Nc3nc(N4CCN(CC5CCN(c6ccc7c(C8CCC(=O)NC8=O)nn(C)c7c6)CC5)[C@H](CO)C4)ncc3Cl)cnc2n(C(C)C)c1=O (stereo partly drawn) [Compound 153b, 2-((6-((5-chloro-2-((3S)-4-((1-(3-(2,6-dioxopiperidin-3-yl)-1-methyl-1H-indazol-6-yl)piperidin-4-yl)methyl)-3-(hydroxymethyl)piperazin-1-yl)pyrimidin-4-yl)amino)-1-isopropyl-2-oxo-1,2-dihydro-1,8-naphthyridin-3-yl)oxy)-N-methylacetamide] | +++ (30% ≤ Ymin < 50%) | < 10 nM
6 | CNC(=O)COc1cc2cc(Nc3nc(N4CCN(C[C@@H]5CCN(c6ccc7c(C8CCC(=O)NC8=O)nn(C)c7c6)C5)CC4)ncc3Cl)cnc2n(C(C)C)c1=O (stereo partly drawn) [Compound 228a, 2-[[6-[[5-chloro-2-[4-[[(3S)-1-[3-(2,6-dioxo-3-piperidyl)-1-methyl-indazol-6-yl]pyrrolidin-3-yl]methyl]piperazin-1-yl]pyrimidin-4-yl]amino]-1-isopropyl-2-oxo-1,8-naphthyridin-3-yl]oxy]-N-methyl-acetamide] | +++ (30% ≤ Ymin < 50%) | < 10 nM
7 | CNC(=O)COc1cc2cc(Nc3nc(N4CCC(CN5CCN(c6cccc7c(C8CCC(=O)NC8=O)nn(C)c67)C[C@H]5C)CC4)ncc3F)cnc2n(C(C)C)c1=O (stereo partly drawn) [Compound 188a, 2-[[6-[[2-[4-[[(2R)-4-[3-(2,6-dioxo-3-piperidyl)-1-methyl-indazol-7-yl]-2-methyl-piperazin-1-yl]methyl]-1-piperidyl]-5-fluoro-pyrimidin-4-yl]amino]-1-isopropyl-2-oxo-1,8-naphthyridin-3-yl]oxy]-N-methyl-acetamide] | +++ (30% ≤ Ymin < 50%) | 10 to 100 nM
